Source: patent publication US20230312605A1, “PYRROLO[2,1-F][1,2,4]TRIAZINES AND PREPARATION AND USES THEREOF” (BioSplice Therapeutics, Inc., priority 2021, published 2023)

The compounds below were run against recombinant DYRK1A kinase (Homo sapiens (Human), UniProt Q13627) (assay: DYRK1A kinase assay (Ser/Thr 18 peptide Z-lyte FRET assay)). Settings: recombinant DYRK1A 0.25 µg/mL, ATP 15 µM, Ser/Thr peptide 18 4 µM, one hour at room temperature; table head prints EC50, method says IC50.
Format: biochemical
How it was run: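 Z-lyte FRET format: 1 h room-temperature reaction of 15 µM ATP, 4 µM Ser/Thr 18 peptide and 0.25 µg/mL recombinant human DYRK1A, in duplicate over 11 compound concentrations up to 10 µM. IC50 was derived by non-linear regression of percent phosphorylation calculated from coumarin/fluorescein emission ratios.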

Row | Compound | EC50 [nM]
1 | Cc1nc2ccc(-c3ccn4nc(N[C@H]5CC[C@@H](C(=O)N6CC(F)(F)C6)CC5)ncc34)nc2n1CC(F)F [Compound 1950, (3,3-Difluoroazetidin-1-yl)(cis-4-((5-(3-(2,2-difluoroethyl)-2-methyl-3H-imidazo[4,5-b]pyridin-5-yl)pyrrolo[2,1-f][1,2,4]triazin-2-yl)amino)cyclohexyl)methanone] | 3
2 | Cc1nc2ccc(-c3ccn4nc(NC5CCN(CC(F)F)CC5)ncc34)nc2n1CC(F)F [Compound 1850, 5-(3-(2,2-Difluoroethyl)-2-methyl-3H-imidazo[4,5-b]pyridin-5-yl)-N-(1-(2,2-difluoroethyl)piperidin-4-yl)pyrrolo[2,1-f][1,2,4]triazin-2-amine] | 8
3 | Cc1nc2ccc(-c3ccn4nc(N[C@H]5CC[C@@H](N6CCOCC6)CC5)ncc34)nc2n1CC(F)F [Compound 1125, 5-(3-(2,2-Difluoroethyl)-2-methyl-3H-imidazo[4,5-b]pyridin-5-yl)-N-(cis-4-morpholinocyclohexyl)pyrrolo[2,1-f][1,2,4]triazin-2-amine] | 18
4 | c1cn2cc(-c3ccn4nc(NCC5CC5)ncc34)ccc2n1 [Compound 16, N-(Cyclopropylmethyl)-5-(imidazo[1,2-a]pyridin-6-yl)pyrrolo[2,1-f][1,2,4] triazin-2-amine] | 48
5 | CO[C@H]1C[C@@H](Nc2ncc3c(-c4ccc5nccnc5c4)ccn3n2)C1 [Compound 1375, N-(cis-3-Methoxycyclobutyl)-5-(quinoxalin-6-yl)pyrrolo[2,1-f][1,2,4]triazin-2-amine] | 6
6 | Cc1nc2ncc(-c3ccn4nc(N[C@H]5CC[C@@H](OC(F)F)CC5)ncc34)cc2n1CC(F)F [Compound 687] | 2
7 | CC(=O)N1CC2(CCC(Nc3ncc4c(-c5ccc6nc(C)n(CC(F)F)c6n5)ccn4n3)CC2)C1 [Compound 1899, 1-(7-((5-(3-(2,2-difluoroethyl)-2-methyl-3H-imidazo[4,5-b]pyridin-5-yl)pyrrolo[2,1-f][1,2,4]triazin-2-yl)amino)-2-azaspiro[3.5]nonan-2-yl)ethan-1-one] | 1
8 | Cc1nc2ncc(-c3ccn4nc(N[C@H]5CCN(C)C[C@@H]5F)ncc34)cc2n1CC(F)F [Compound 1886, 5-(1-(2,2-Difluoroethyl)-2-methyl-1H-imidazo[4,5-b]pyridin-6-yl)-N-((3S,4S)-3-fluoro-1-methylpiperidin-4-yl)pyrrolo[2,1-f][1,2,4]triazin-2-amine] | 3
9 | Cc1nc2ccc(-c3ccn4nc(NC5CCN(C(=O)C6CC6)CC5)ncc34)nc2n1CC(F)F [Compound 1860] | 5
10 | [2H]C([2H])([2H])O[C@H]1CC[C@@H](Nc2ncc3c(-c4cnc5nccn5c4)ccn3n2)CC1 [Compound 1802, 5-(Imidazo[1,2-a]pyrimidin-6-yl)-N-(cis-4-(methoxy-ds)cyclohexyl)pyrrolo [2,1-f][1,2,4] triazin-2-amine] | 5
11 | Cc1nc2ccc(-c3ccn4nc(NC5CCN(C(=O)[C@@H]6CC6(F)F)CC5)ncc34)nc2n1CC(F)F [Compound 1917, (S)-(2,2-Difluorocyclopropyl)(4-((5-(3-(2,2-difluoroethyl)-2-methyl-3H-imidazo[4,5-b]pyridin-5-yl)pyrrolo[2,1-f] [1,2,4]triazin-2-yl)amino)piperidin-1-yl)methanone] | 9
12 | Cc1nc2ccc(-c3ccn4nc(N[C@H]5CN(C6COC6)C[C@H]5F)ncc34)nc2n1CC(F)F [Compound 1944, 5-(3-(2,2-difluoroethyl)-2-methyl-3H-imidazo[4,5-b]pyridin-5-yl)-N-((3S,4R)-4-fluoro-1-(oxetan-3-yl)pyrrolidin-3-yl)pyrrolo[2,1-f][1,2,4]triazin-2-amine] | 13
13 | COCCO[C@H]1C[C@@H](Nc2ncc3c(-c4ccc5ncccc5c4)ccn3n2)C1 [Compound 1309, N-(cis-3-(2-Methoxyethoxy)cyclobutyl)-5-(quinolin-6-yl)pyrrolo[2,1-f][1,2,4]triazin-2-amine] | 3
14 | Cc1nc2ccc(-c3ccn4nc(N[C@H]5CCN(C6COC6)C[C@H]5F)ncc34)nc2n1CC(F)F [Compound 1955, 5-(3-(2,2-Difluoroethyl)-2-methyl-3H-imidazo[4,5-b]pyridin-5-yl)-N-((3R,4S)-3-fluoro-1-(oxetan-3-yl)piperidin-4-yl)pyrrolo[2,1-f][1,2,4]triazin-2-amine] | 4
15 | COCCO[C@H]1CC[C@@H](Nc2ncc3c(-c4cnc5ncccc5c4)ccn3n2)CC1 [Compound 1543, N-(cis-4-(2-Methoxyethoxy)cyclohexyl)-5-(1,8-naphthyridin-3-yl)pyrrolo [2,1-f][1,2,4]triazin-2-amine] | 2
16 | CC(=O)N1CC[C@@H](Nc2ncc3c(-c4ccc5nc(C)n(CC(F)F)c5n4)ccn3n2)[C@@H](F)C1 [Compound 1951, 1-((3S,4R)-4-((5-(3-(2,2-Difluoroethyl)-2-methyl-3H-imidazo[4,5-b]pyridin-5-yl)pyrrolo[2,1-f] [1,2,4]triazin-2-yl)amino)-3-fluoropiperidin-1-yl)ethan-1-one] | 5
17 | Cc1nc2ccc(-c3ccn4nc(N[C@H]5CC[C@@](C)(O)CC5)ncc34)nc2n1CC(C)C [Compound 1829, cis-4-((5-(3-Isobutyl-2-methyl-3H-imidazo[4,5-b]pyridin-5-yl)pyrrolo[2,1-f] [1,2,4]triazin-2-yl)amino)-1-methylcyclohexan-1-ol] | 33
18 | CC(=O)N[C@H]1CC[C@@H](Nc2ncc3c(-c4ccc5nc(C)n(CC(F)F)c5n4)ccn3n2)CC1 [Compound 1898, N-(cis-4-((5-(3-(2,2-Difluoroethyl)-2-methyl-3H-imidazo [4,5-b]pyridin-5-yl)pyrrolo[2,1-f] [1,2,4]triazin-2-yl)amino)cyclohexyl)acetamide] | 3
19 | CO[C@H]1CC[C@@H](Nc2ncc3c(-c4cnc5nc(C)n(CC(F)F)c5c4)ccn3n2)CC1 [Compound 685, 5-(1-(2,2-Difluoroethyl)-2-methyl-1H-imidazo[4,5-b]pyridin-6-yl)-N-(cis-4-methoxycyclohexyl)pyrrolo[2,1-f] [1,2,4]triazin-2-amine] | 3
20 | Cc1nc2ncc(-c3ccn4nc(NCC(C)(C)F)ncc34)cc2n1C1CC(F)(F)C1 [Compound 713, 5-(1-(3,3-Difluorocyclobutyl)-2-methyl-1H-imidazo[4,5-b]pyridin-6-yl)-N-(2-fluoro-2-methylpropyl)pyrrolo[2,1-f][1,2,4]triazin-2-amine] | 11
21 | Cc1nc2ccc(-c3ccn4nc(NC5CCN(C(=O)C6CCC(F)(F)CC6)CC5)ncc34)nc2n1CC(F)F [Compound 1953, (4,4-difluorocyclohexyl)(4-((5-(3-(2,2-difluoroethyl)-2-methyl-3H-imidazo[4,5-b]pyridin-5-yl)pyrrolo[2,1-f][1,2,4]triazin-2-yl)amino)piperidin-1-yl)methanone] | 7
22 | Cc1nc2ccc(-c3ccn4nc(N[C@H]5C[C@@H](O)C5)ncc34)nc2n1CC(F)F [Compound 1720, cis-3-((5-(3-(2,2-Difluoroethyl)-2-methyl-3H-imidazo [4,5-b]pyridin-5-yl)pyrrolo[2,1-f] [1,2,4]triazin-2-yl)amino)cyclobutan-1-ol] | 5
